Assays:
barnyardgrass [1] = assay: Test A preemergence; assay type: in vivo, Echinochloa crus-galli; settings: 0 to 100 scale
In short: (§1)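 Scoring was visual, on a scale where 100 means complete control and 0 means no effect, comparing treated with untreated plants around 10 days post-application. Compounds in surfactant-containing non-phytotoxic solvent were sprayed onto soil preemergence or onto one- to two-leaf seedlings (2–10 cm) postemergence.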

crabgrass, large [2] = assay: Test A preemergence; assay type: in vivo, Digitaria sanguinalis; settings: 0 to 100 scale
In short: as §1

foxtail, giant [3] = assay: Test A preemergence; assay type: in vivo, Setaria faberii; settings: 0 to 100 scale
In short: as §1

morningglory [4] = assay: Test A preemergence; assay type: in vivo, Ipomoea spp.; settings: 0 to 100 scale
In short: as §1

pigweed [5] = assay: Test A preemergence; assay type: in vivo, Amaranthus retroflexus; settings: Preemergence, 0 to 100 scale, 0 no effect, 100 complete control
In short: as §1

velvetleaf [6] = assay: Test A preemergence; assay type: in vivo, Abutilon theophrasti; settings: 0 to 100 scale
In short: as §1

wheat [7] = assay: Test A preemergence; assay type: in vivo, Triticum aestivum
In short: as §1

corn [8] = assay: Test A preemergence; assay type: in vivo, Zea mays; settings: 0 to 100 scale
In short: as §1

barnyardgrass [9] = assay: Test A postemergence; assay type: in vivo, Echinochloa crus-galli; settings: Postemergence
In short: as §1

crabgrass, large [10] = assay: Test A postemergence; assay type: in vivo, Digitaria sanguinalis
In short: as §1

foxtail, giant [11] = assay: Test A postemergence; assay type: in vivo, Setaria faberii
In short: as §1

morningglory [12] = assay: Test A postemergence; assay type: in vivo, Ipomoea spp.
In short: as §1

pigweed [13] = assay: Test A postemergence; assay type: in vivo, Amaranthus retroflexus
In short: as §1

velvetleaf [14] = assay: Test A postemergence; assay type: in vivo, Abutilon theophrasti
In short: as §1

wheat [15] = assay: Test A postemergence; assay type: in vivo, Triticum aestivum
In short: as §1

corn [16] = assay: Test A postemergence; assay type: in vivo, Zea mays
In short: as §1

[17] = Preemergence, 1000 g ai/ha, 0 no effect, 100 complete control
[18] = Preemergence, 1000 g ai/ha, 0 to 100 scale, 0 no effect, 100 complete control
[19] = 1000 g ai/ha, visual rating after approx. 10 days, 0 to 100 scale (0 no effect, 100 complete control)
[20] = Postemergence, 1000 g ai/ha, visual rating after approx. 10 days, 0 to 100 scale (0 no effect, 100 complete control)
[21] = Preemergence, 500 g ai/ha, 0 no effect, 100 complete control
[22] = preemergence, 125 g ai/ha, visual injury, approx. 10 days
[23] = Postemergence, 500 g ai/ha, visual rating after approx. 10 days, 0 to 100 scale (0 no effect, 100 complete control)
[24] = postemergence, 125 g ai/ha, about 10 days, visual rating on 0 to 100 scale (0 no effect, 100 complete control)

CCc1cc(C(=O)NC2CC2)nn1Cc1cccc(OC(F)(F)F)c1 [Compound 26]
40: Wheat plant response rating (wheat [7]; [18]) | Corn plant response rating (corn [8]; [17])
90: Morningglory plant response rating (morningglory [4]; [17]) | Crabgrass, Large plant response rating (crabgrass, large [10]; [20])
50: Wheat plant response rating (wheat [15]; [20])
80: Barnyardgrass plant response rating (barnyardgrass [1]; [17])
100: Crabgrass, Large plant response rating (crabgrass, large [2]; [17]) | Foxtail, Giant plant response rating (foxtail, giant [3]; [17]) | Pigweed plant response rating (pigweed [5]; 1000 g ai/ha) | Velvetleaf plant response rating (velvetleaf [6]; [17]) | Foxtail, Giant plant response rating (foxtail, giant [11]; [20]) | Morningglory plant response rating (morningglory [12]; [20]) | Pigweed plant response rating (pigweed [13]; [20]) | Velvetleaf plant response rating (velvetleaf [14]; [20])
70: Barnyardgrass plant response rating (barnyardgrass [9]; [19]) | Corn plant response rating (corn [16]; [20])

Cc1cc(C(=O)NCC(F)(F)F)nn1Cc1cccc(C(F)(F)F)c1F [Compound 9]
30: Pigweed plant response rating (pigweed [5]; 500 g ai/ha)
10: Barnyardgrass plant response rating (barnyardgrass [1]; [21]) | Barnyardgrass plant response rating (barnyardgrass [9]; 500 g ai/ha, visual rating after approx. 10 days, 0 to 100 scale (0 no effect, 100 complete control)) | Morningglory plant response rating (morningglory [12]; [23])
20: Crabgrass, Large plant response rating (crabgrass, large [2]; [21]) | Foxtail, Giant plant response rating (foxtail, giant [3]; [21])
0: Barnyardgrass plant response rating (barnyardgrass [1]; [22]) | Crabgrass, Large plant response rating (crabgrass, large [2]; [22]) | Foxtail, Giant plant response rating (foxtail, giant [3]; [22]) | Morningglory plant response rating (morningglory [4]; [21]) | Morningglory plant response rating (morningglory [4]; [22]) | Velvetleaf plant response rating (velvetleaf [6]; [21]) | Velvetleaf plant response rating (velvetleaf [6]; [22]) | Wheat plant response rating (wheat [7]; preemergence, 125 g ai/ha, visual injury, 0 to 100 scale, approx. 10 days) | Corn plant response rating (corn [8]; [21]) | Corn plant response rating (corn [8]; [22]) | Barnyardgrass plant response rating (barnyardgrass [9]; 125 g ai/ha, 0 to 100 scale, 0 no effect, 100 complete control) | Crabgrass, Large plant response rating (crabgrass, large [10]; [23]) | Crabgrass, Large plant response rating (crabgrass, large [10]; [24]) | Foxtail, Giant plant response rating (foxtail, giant [11]; [23]) | Foxtail, Giant plant response rating (foxtail, giant [11]; [24]) | Morningglory plant response rating (morningglory [12]; [24]) | Pigweed plant response rating (pigweed [13]; [23]) | Pigweed plant response rating (pigweed [13]; [24]) | Velvetleaf plant response rating (velvetleaf [14]; [23]) | Velvetleaf plant response rating (velvetleaf [14]; [24]) | Wheat plant response rating (wheat [15]; [23]) | Wheat plant response rating (wheat [15]; [24]) | Corn plant response rating (corn [16]; [23]) | Corn plant response rating (corn [16]; [24])

CCNC(=O)c1cc(C2CC2)n(Cc2cccc(OC(F)(F)F)c2)n1 [Compound 39]
40: Pigweed plant response rating (pigweed [13]; [20])
0: Barnyardgrass plant response rating (barnyardgrass [1]; [17]) | Foxtail, Giant plant response rating (foxtail, giant [3]; [17]) | Morningglory plant response rating (morningglory [4]; [17]) | Pigweed plant response rating (pigweed [5]; 1000 g ai/ha) | Velvetleaf plant response rating (velvetleaf [6]; [17]) | Wheat plant response rating (wheat [7]; [18]) | Corn plant response rating (corn [8]; [17]) | Wheat plant response rating (wheat [15]; [20])
10: Crabgrass, Large plant response rating (crabgrass, large [2]; [17]) | Barnyardgrass plant response rating (barnyardgrass [9]; [19]) | Crabgrass, Large plant response rating (crabgrass, large [10]; [20]) | Foxtail, Giant plant response rating (foxtail, giant [11]; [20]) | Velvetleaf plant response rating (velvetleaf [14]; [20]) | Corn plant response rating (corn [16]; [20])
60: Morningglory plant response rating (morningglory [12]; [20])

CCc1cc(C(=O)NC(C)(C)C)nn1Cc1cccc(OC(F)(F)F)c1 [Compound 59]
10: Crabgrass, Large plant response rating (crabgrass, large [2]; [17]) | Foxtail, Giant plant response rating (foxtail, giant [3]; [17]) | Wheat plant response rating (wheat [7]; preemergence, 500 g ai/ha, visual injury after approx. 10 days, 0 to 100 scale (0 no effect, 100 complete control)) | Barnyardgrass plant response rating (barnyardgrass [9]; [19]) | Crabgrass, Large plant response rating (crabgrass, large [10]; [20]) | Velvetleaf plant response rating (velvetleaf [14]; [20]) | Corn plant response rating (corn [16]; [20])
20: Foxtail, Giant plant response rating (foxtail, giant [11]; [20])
0: Barnyardgrass plant response rating (barnyardgrass [1]; [17]) | Morningglory plant response rating (morningglory [4]; [17]) | Pigweed plant response rating (pigweed [5]; 1000 g ai/ha) | Velvetleaf plant response rating (velvetleaf [6]; [17]) | Wheat plant response rating (wheat [7]; [18]) | Corn plant response rating (corn [8]; [17]) | Wheat plant response rating (wheat [15]; [20])
50: Morningglory plant response rating (morningglory [12]; [20]) | Pigweed plant response rating (pigweed [13]; [20])

From US20150105252A1, “SUBSTITUTED PYRAZOLES AS HERBICIDES” (E I DU PONT DE NEMOURS AND COMPANY, priority 2013, published 2015)
